Test [1] has as its target Bone morphogenetic protein receptor type-1A (Homo sapiens, UniProt P36894).
Test [2] has as its target Casein kinase I isoform alpha (Homo sapiens, UniProt P48729).
Test [3] addresses Tyrosine-protein kinase FRK (Homo sapiens, UniProt P42685).
Test [4] has as its target Tyrosine-protein kinase Fyn (Homo sapiens, UniProt P06241).
For test [5], the target named is Putative heat shock protein HSP 90-beta 2 (Homo sapiens, UniProt Q58FF8).
For test [6], the target named is S-adenosylmethionine synthase isoform type-2 (Homo sapiens, UniProt P31153).
Sequence of S-adenosylmethionine synthase isoform type-2 (P31153 whole entry, canonical isoform): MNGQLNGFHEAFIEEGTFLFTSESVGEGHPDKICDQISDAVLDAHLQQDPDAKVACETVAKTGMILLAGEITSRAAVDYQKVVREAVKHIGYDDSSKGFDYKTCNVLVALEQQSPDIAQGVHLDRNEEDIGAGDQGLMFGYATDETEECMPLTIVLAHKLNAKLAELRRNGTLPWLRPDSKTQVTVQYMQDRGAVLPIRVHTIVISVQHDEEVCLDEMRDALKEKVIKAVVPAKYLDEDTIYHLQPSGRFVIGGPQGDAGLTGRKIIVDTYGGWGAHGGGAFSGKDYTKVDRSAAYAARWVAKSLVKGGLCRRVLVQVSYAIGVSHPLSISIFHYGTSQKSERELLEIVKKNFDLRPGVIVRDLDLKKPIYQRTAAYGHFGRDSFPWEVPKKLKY
Test [7] deals with Protein-tyrosine kinase 2-beta (Homo sapiens, UniProt Q14289).
Sequence of Protein-tyrosine kinase 2-beta (Q14289 whole entry): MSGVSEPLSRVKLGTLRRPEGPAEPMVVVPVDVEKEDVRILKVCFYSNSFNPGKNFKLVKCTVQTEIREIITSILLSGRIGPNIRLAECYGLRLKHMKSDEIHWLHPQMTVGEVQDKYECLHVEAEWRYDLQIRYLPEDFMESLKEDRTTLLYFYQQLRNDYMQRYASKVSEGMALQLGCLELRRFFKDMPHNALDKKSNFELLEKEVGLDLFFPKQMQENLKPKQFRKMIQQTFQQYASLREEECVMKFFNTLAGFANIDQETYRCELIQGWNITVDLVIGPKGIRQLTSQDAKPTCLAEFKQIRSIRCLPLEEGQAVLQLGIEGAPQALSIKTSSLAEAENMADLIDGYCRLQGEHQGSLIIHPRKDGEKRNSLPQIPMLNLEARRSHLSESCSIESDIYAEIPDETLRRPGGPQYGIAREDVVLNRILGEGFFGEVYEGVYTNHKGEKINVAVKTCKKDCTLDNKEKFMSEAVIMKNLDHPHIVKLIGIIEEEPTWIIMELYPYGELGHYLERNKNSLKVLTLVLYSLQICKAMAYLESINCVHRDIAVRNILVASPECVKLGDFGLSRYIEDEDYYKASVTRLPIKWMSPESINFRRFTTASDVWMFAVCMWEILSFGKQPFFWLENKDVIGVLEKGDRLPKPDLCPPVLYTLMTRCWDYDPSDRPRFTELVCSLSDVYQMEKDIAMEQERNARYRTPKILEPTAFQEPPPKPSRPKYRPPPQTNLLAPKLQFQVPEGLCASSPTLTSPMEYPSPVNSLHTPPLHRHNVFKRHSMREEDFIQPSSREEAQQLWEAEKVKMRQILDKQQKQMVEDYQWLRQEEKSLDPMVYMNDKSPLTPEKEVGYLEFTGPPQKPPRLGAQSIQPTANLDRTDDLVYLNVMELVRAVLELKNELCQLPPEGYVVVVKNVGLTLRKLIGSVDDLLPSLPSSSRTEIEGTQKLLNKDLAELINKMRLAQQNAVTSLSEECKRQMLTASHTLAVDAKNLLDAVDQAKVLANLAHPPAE
Test [8] concerns the target Ribosomal protein S6 kinase alpha-5 (Homo sapiens, UniProt O75582).
Test [9] addresses STE20-like serine/threonine-protein kinase (Homo sapiens, UniProt Q9H2G2).
The target of test [10] is T1, STE20-related kinase adapter protein alpha (Homo sapiens, UniProt Q7RTN6).
T1 sequence (Q7RTN6 whole entry): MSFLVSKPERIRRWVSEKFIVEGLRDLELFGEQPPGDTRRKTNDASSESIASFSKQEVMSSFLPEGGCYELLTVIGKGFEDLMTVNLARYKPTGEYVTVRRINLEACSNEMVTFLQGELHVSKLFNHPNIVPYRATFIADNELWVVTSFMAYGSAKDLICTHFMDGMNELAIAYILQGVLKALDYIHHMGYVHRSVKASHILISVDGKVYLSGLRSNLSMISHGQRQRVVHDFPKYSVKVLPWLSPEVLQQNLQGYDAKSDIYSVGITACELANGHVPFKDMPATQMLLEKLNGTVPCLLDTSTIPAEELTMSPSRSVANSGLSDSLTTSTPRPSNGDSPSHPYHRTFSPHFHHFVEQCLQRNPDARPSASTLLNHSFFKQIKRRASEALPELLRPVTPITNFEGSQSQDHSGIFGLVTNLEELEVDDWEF

Test [11] has as its target T2, Serine/threonine-protein kinase TAO2 (Homo sapiens, UniProt Q9UL54).
T2 sequence (Q9UL54 whole entry): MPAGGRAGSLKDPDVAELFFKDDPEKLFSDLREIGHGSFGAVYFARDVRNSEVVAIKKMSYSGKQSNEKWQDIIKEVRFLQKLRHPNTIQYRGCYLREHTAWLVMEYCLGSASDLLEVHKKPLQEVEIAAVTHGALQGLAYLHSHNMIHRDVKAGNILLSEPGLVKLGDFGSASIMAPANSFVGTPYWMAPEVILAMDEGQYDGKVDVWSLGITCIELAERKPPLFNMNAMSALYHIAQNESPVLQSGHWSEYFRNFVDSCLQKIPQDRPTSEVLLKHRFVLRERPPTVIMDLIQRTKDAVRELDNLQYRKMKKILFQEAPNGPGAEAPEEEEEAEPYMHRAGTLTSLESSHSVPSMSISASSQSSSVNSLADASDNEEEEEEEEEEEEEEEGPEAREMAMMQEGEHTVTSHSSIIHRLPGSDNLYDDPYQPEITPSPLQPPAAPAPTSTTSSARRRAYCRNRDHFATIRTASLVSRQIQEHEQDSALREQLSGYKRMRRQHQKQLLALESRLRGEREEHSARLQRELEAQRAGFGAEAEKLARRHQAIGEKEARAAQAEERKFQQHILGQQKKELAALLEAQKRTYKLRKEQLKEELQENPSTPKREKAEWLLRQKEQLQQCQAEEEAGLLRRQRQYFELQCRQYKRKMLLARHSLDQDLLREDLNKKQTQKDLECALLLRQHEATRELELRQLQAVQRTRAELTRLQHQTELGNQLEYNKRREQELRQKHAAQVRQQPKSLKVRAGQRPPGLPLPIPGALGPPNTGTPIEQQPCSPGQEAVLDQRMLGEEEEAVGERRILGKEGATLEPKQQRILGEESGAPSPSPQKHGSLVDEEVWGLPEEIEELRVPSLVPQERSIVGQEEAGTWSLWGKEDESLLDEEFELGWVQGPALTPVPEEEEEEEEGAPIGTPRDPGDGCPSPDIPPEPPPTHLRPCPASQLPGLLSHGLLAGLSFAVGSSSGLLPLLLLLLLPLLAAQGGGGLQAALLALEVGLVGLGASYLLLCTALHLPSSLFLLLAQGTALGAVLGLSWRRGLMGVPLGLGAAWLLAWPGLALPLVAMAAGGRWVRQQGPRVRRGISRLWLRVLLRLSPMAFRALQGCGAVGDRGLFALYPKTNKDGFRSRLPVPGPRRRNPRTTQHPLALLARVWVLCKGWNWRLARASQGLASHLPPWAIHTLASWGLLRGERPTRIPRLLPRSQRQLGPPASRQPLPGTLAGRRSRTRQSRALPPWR

Test [12] has as its target T3, EKC/KEOPS complex subunit TP53RK (Homo sapiens, UniProt Q96S44).
T3 sequence (Q96S44 whole entry): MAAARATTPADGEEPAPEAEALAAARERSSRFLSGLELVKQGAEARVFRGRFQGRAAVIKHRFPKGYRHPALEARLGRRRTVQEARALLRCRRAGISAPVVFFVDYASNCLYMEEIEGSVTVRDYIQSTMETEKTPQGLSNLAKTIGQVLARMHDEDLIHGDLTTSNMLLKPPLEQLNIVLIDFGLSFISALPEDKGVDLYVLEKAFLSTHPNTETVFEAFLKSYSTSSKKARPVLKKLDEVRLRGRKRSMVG

The source made the active and inactive calls. Cut-off read from the data, not from the text of the source, for most assays here: actives have a measured Kd and inactives only a lower limit.
Note: in the data inactive means no Kd found up to 30 µM.

Sequence of Tyrosine-protein kinase FRK (P42685 whole entry): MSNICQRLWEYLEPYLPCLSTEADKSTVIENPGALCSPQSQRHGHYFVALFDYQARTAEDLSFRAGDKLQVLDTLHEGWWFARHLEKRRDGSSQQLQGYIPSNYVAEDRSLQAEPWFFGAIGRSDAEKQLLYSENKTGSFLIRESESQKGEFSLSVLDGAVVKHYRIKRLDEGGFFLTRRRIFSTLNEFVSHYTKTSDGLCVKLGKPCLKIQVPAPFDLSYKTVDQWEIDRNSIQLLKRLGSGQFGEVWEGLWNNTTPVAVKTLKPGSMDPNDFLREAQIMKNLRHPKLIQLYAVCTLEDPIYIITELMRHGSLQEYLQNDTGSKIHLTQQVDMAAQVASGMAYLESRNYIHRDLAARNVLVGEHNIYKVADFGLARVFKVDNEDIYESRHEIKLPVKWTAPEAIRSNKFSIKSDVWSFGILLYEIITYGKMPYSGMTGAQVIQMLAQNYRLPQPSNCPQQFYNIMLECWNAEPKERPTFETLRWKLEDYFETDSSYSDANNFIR
Sequence of STE20-like serine/threonine-protein kinase (Q9H2G2 whole entry): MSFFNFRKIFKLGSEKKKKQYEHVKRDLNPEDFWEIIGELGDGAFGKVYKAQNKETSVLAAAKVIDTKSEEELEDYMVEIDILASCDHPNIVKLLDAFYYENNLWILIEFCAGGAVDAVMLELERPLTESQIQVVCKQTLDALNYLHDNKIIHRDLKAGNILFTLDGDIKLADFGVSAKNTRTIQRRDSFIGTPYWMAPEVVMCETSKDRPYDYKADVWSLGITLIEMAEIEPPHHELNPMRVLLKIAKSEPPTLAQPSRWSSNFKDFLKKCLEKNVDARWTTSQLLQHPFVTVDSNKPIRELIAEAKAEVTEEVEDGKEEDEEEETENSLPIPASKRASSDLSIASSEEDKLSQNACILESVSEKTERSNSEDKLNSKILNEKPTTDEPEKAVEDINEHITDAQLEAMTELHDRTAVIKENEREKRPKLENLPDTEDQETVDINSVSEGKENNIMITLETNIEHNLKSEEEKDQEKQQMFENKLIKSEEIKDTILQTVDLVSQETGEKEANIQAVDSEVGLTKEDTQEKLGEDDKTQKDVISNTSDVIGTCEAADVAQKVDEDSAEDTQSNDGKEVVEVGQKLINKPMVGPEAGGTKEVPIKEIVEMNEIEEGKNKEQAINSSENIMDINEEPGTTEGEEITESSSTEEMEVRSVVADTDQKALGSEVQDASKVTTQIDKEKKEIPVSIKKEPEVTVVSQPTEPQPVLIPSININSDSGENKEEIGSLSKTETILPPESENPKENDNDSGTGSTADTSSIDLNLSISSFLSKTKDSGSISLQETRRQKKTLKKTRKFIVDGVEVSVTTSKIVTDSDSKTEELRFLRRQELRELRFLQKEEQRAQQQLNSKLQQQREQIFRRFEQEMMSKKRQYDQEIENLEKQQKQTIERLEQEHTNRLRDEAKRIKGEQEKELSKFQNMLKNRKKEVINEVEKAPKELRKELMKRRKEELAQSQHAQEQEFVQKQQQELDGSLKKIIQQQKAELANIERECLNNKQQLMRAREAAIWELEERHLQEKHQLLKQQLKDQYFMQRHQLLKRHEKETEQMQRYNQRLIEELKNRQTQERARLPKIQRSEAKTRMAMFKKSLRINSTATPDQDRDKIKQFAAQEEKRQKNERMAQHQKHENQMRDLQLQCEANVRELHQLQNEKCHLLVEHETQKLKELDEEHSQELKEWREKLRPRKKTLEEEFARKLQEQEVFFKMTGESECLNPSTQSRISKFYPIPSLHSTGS
Sequence of Casein kinase I isoform alpha (P48729 whole entry, canonical isoform): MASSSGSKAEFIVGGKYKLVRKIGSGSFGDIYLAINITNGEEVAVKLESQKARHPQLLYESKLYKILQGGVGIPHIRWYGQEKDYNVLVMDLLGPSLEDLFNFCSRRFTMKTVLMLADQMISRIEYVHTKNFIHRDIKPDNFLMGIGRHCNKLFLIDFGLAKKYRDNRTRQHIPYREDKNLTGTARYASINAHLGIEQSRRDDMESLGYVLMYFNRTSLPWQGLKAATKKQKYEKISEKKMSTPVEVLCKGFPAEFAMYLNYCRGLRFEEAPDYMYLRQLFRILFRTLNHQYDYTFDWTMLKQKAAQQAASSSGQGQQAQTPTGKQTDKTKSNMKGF
Sequence of Bone morphogenetic protein receptor type-1A (P36894 whole entry, canonical isoform): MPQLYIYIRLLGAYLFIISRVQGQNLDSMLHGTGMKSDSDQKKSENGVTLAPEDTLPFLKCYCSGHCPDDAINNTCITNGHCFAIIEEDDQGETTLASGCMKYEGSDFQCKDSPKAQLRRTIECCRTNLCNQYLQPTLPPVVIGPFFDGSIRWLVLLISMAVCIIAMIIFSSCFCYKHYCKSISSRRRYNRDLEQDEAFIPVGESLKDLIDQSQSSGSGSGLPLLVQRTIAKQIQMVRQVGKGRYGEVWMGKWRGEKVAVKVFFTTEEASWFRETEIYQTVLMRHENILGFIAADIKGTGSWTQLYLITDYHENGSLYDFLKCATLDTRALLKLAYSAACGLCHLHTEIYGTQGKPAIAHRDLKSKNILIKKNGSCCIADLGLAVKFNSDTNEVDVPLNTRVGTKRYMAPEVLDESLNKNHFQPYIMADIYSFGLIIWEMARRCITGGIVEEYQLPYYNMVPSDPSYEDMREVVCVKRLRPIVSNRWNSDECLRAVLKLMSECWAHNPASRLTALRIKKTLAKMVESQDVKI
Sequence of Putative heat shock protein HSP 90-beta 2 (Q58FF8 whole entry, canonical isoform): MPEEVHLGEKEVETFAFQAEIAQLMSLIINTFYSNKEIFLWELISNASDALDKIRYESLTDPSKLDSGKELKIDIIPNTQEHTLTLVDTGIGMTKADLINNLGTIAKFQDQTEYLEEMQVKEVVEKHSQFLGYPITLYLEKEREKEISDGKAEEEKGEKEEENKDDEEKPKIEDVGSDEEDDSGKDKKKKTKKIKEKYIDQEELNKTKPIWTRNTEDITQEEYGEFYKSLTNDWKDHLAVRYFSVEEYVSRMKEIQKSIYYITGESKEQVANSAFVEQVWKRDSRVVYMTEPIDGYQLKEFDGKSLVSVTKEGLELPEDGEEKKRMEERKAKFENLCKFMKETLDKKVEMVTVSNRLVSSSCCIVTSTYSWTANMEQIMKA
Sequence of Tyrosine-protein kinase Fyn (P06241 whole entry): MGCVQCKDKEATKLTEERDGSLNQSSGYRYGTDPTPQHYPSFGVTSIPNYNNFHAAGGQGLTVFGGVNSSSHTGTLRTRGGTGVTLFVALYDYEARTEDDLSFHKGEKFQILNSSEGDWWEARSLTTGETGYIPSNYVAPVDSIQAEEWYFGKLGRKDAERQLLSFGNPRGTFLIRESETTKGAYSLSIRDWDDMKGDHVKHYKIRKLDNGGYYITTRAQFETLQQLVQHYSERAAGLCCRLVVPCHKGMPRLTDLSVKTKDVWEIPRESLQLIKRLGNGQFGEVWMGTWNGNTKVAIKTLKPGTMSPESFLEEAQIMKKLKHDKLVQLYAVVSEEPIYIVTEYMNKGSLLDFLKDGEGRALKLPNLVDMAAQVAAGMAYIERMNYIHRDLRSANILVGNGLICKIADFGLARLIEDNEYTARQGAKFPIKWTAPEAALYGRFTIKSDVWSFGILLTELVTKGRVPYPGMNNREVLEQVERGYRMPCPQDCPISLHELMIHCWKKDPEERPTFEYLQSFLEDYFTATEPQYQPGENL

For `CC(=O)Nc1cccc(-n2c(=O)n(C3CC3)c(=O)c3c(Nc4ccc(I)cc4F)n(C)c(=O)c(C)c32)c1` [TRAMETINIB], the Kd in [1], in [2], in test [3], in [4], in test [5] and in test [6] was > 30 µM (inactive) throughout. Further, the Kd in [7], in test [8], in test [9], in test [10], in [11] and in test [12] was > 30 µM (inactive) each time.
With `Cn1ncc(Cl)c1-c1cc(C(=O)N[C@H](CN)Cc2cccc(F)c2)sc1Cl` [AFURESERTIB], the Kd in test [1], in test [2], in test [3], in test [4], in test [5] and in test [6] was > 30 µM (inactive) throughout. The Kd in test [7], in test [8], in [9], in [10], in [11] and in test [12] was > 30 µM (inactive) each time.
For the molecule `CCCS(=O)(=O)Nc1ccc(F)c(C(=O)c2c[nH]c3ncc(-c4ccc(Cl)cc4)cc23)c1F` [VEMURAFENIB], the Kd in test [1], in test [2], in [3], in test [4], in [5] and in test [6] was > 30 µM (inactive) throughout. Further, the Kd in test [7], in [8], in test [9], in [10], in test [11] and in [12] was > 30 µM (inactive) in each case.
Take `COCCNCc1ccc(-c2cc3nccc(Oc4ccc(NC(=S)NC(=O)Cc5ccc(F)cc5)cc4F)c3s2)nc1` [GLESATINIB]: the Kd in test [1] is > 30 µM (inactive); in [2], > 30 µM (inactive); in [3] it was 1.1 µM (active); in [4] it was 1.24 µM (active); in [5] it was > 30 µM (inactive); in test [6] it was > 30 µM (inactive). Besides, the Kd in test [7], in test [8], in test [9], in [10], in [11] and in [12] was > 30 µM (inactive) throughout.
For the molecule `COC(=O)[C@@]1(O)C[C@H]2O[C@]1(C)n1c3ccccc3c3c4c(c5c6ccccc6n2c5c31)C(=O)NC4` [K-252A], the Kd in test [1], in test [2], in test [3], in [4], in test [5] and in [6] was > 30 µM (inactive) each time. The Kd in test [7] is 1.36 µM (active); in test [8], 14.7 µM (active); in test [9], 3.3 µM (active); in test [10], > 30 µM (inactive); in test [11] it was > 30 µM (inactive); in [12], 3.84 µM (active).
Regarding `Cc1cc([C@@H](C)Nc2ccccc2C(=O)O)c2nc(N3CCOCC3)cc(=O)n2c1` [AZD-6482], the Kd in test [1], in test [2], in [3], in test [4], in [5] and in test [6] was > 30 µM (inactive) each time. Further, the Kd in test [7], in [8], in test [9], in test [10], in test [11] and in test [12] was > 30 µM (inactive) in each case.
With `CNC(=O)c1ccc(-c2cnc3ncc(Cc4ccc5ncccc5c4)n3n2)cc1F` [CAPMATINIB], the Kd in test [1], in test [2], in test [3], in test [4], in test [5] and in test [6] was > 30 µM (inactive) in each case. Further, the Kd in test [7], in [8], in test [9], in test [10], in test [11] and in test [12] was > 30 µM (inactive) each time.
With `CN1CC[C@@H](c2c(O)cc(O)c3c(=O)cc(-c4ccccc4Cl)oc23)[C@@H]1CO`, the Kd in test [1], in test [2], in [3], in [4], in test [5] and in test [6] was > 30 µM (inactive) in each case. Moreover, the Kd in [7], in test [8], in [9], in test [10], in [11] and in test [12] was > 30 µM (inactive) in each case.
With `N[C@@H]1CCCN(c2c(/C=C3\SC(=O)NC3=O)cccc2-c2ccccc2)C1`, the Kd in test [1], in test [2], in test [3], in test [4], in [5] and in test [6] was > 30 µM (inactive) in each case. The Kd in test [7], in test [8], in test [9], in [10], in test [11] and in test [12] was > 30 µM (inactive) throughout.
For `CCN1CCN(Cc2ccc(-c3cc4c(N[C@H](C)c5ccccc5)ncnc4[nH]3)cc2)CC1` [AEE-788], the Kd in [1], in test [2], in [3], in test [4], in test [5] and in [6] was > 30 µM (inactive) each time. For the same molecule, the Kd was > 30 µM (inactive) in test [7]; > 30 µM (inactive) in test [8]; 99.2 µM (active) in [9]; > 30 µM (inactive) in [10]; > 30 µM (inactive) in test [11]; > 30 µM (inactive) in test [12].

Usually Kd stands for the concentration at which binding is half-saturated.

These data come from ChEMBL document CHEMBL3991601, “The target landscape of clinical kinase drugs” (Science, 2017).
